{"source": "patent US9834566B2", "about": "“Pyrazolopyrimidine macrocycles as inhibitors of human immunodeficiency virus replication” (priority 2014, dated 2017)", "note": "pEC50: −log10 of the molar value."}
{"tested_on": "recombinant NL-RLuc virus (NL4-3 with Renilla Luciferase gene)", "experiment": "Inhibition of HIV replication (NL-RLuc luciferase reporter virus in MT-2 cells)", "format": "cell-based", "conditions": "NL43, 120 h", "from_the_text": "Inhibition of HIV Replication:\nA recombinant NL-RLuc proviral clone was constructed in which a section of the nef gene from NL4-3 was replaced with the Renilla Luciferase gene. This virus is fully infectious and can undergo multiple cycles of replication in cell culture. In addition, the luciferous reporter provides a simple and easy method for quantitating the extent of virus growth and consequently, the antiviral activity of test compounds. The plasmid pNLRLuc contains the proviral NL-Rluc DNA cloned into pUC18 at the PvuII site. The NL-RLuc virus was prepared by transfection of 293T cells with the plasmid pNLRLuc. Transfections were performed using the LipofectAMINE PLUS kit from Invitrogen (Carlsbad, Calif.) according to the manufacturer and the virus generated was titered in MT-2 cells. For susceptibility analyses, the titrated virus was used to infect MT-2 cells in the presence of compound, and after 5 days of incubation, cells were processed and quantitated for virus growth by the amount of expressed luciferase. Assay media was RPMI 1640 supplemented with 10% heat inactivated fetal bovine serum (FBS), 100 units/ml penicillin G/100 units/ml streptomycin, 10 mM HEPES buffer pH 7.55 and 2 mM L-glutamine. The results from at least 2 experiments were used to calculate the EC50 values. Luciferase was quantitated using the Dual Luciferase kit from Promega (Madison, Wis.). Susceptibility of viruses to compounds was determined by incubation in the presence of serial dilutions of the compound. The 50% effective concentration (EC50) was calculated by using the exponential form of the median effect equation where (Fa)=1/[1+(ED50/drug conc.)^m] (Johnson V A, Byington R T. Infectivity Assay. In Techniques in HIV Research. ed. Aldovini A, Walker B D. 71-76. New York: Stockton Press. 1990)."}
{"smiles": "Cc1ccc2cc1OCC#CCOc1cc(F)ccc1-c1cccc(c1)-c1cc3nc(C)c([C@H](OC(C)(C)C)C(=O)O)c-2n3n1", "note": "[Example 13, (2S)-2-(tert-Butoxy)-2-{23-fluoro-7,13-dimethyl-15,20-dioxa-3,4,6-triazahexacyclo [25.3.1.1^2,^5.1^10,^14.0^4,^9.0^21,^26]tritriaconta-1(31),2,5(33),6,8,10,12,14(32), 21(26),22,24,27,29-tridecaen-17-yn-8-yl}acetic acid]", "pEC50": 6.54}
{"smiles": "Cc1ccc2cc1OCCN(Cc1ccccc1)CCOc1cc(F)ccc1-c1cccc(c1)-c1cc3nc(C)c([C@H](OC(C)(C)C)C(=O)O)c-2n3n1", "note": "[Example 18, (2S)-2-(tert-Butoxy)-2-{18-fluoro-4-methyl-21,29,33-trioxa-5,7,8-triazaoctacyclo [28.6.2.1^6,^9.1^10,^14.1^23,^27.0^2,^7.0^15,^20.0^34,^38]hentetraconta-1(36),2,4,6(41),8,10(40),11,13, 15(20),16,18,23,25,27(39),34,37-hexadecaen-3-yl}acetic acid]", "pEC50": 5.94}
{"smiles": "Cc1nc2cc3nn2c(c1[C@H](OC(C)(C)C)C(=O)O)-c1ccc(cc1)OCC#CCOc1cc(F)ccc1-c1cccc-3c1", "note": "[Example 4, (2S)-2-(tert-butoxy)-2-{18-fluoro-4-methyl-21,26-dioxa-5,7,8-triazahexacyclo [25.2.2.1^6,^9.1^10,^14.0^2,^7.0^15,^20]tritriaconta-1(29),2,4,6(33),8,10(32),11,13, 15(20),16,18,27,30-tridecaen-23-yn-3-yl}acetic acid]", "pEC50": 6.55}
{"smiles": "Cc1ccc2c(c1)OCCCCCOc1cc(F)ccc1-c1cccc(c1)-c1cc3nc(C)c([C@H](OC(C)(C)C)C(=O)O)c-2n3n1", "note": "[Example 20, (2S)-2-(tert-butoxy)-2-{25-fluoro-7, 13-dimethyl-16, 22-dioxa-3,4,6-triazahexacyclo[27.3.1.1^2,5.0^4,9.0^10,15.0^23,28]tetratriaconta-1(33),2,5(34),6,8,10,12,14, 23(28),24,26,29,31-tridecaen-8-yl}acetic acid]", "pEC50": 5.56}
{"smiles": "Cc1nc2cc3nn2c(c1[C@H](OC(C)(C)C)C(=O)O)N1CCC(C)(CC1)OCCCC[C@H](C)Oc1ccc(C(=O)NCCc2ccc(F)cc2)cc1-c1cccc-3c1", "note": "[Example 25, (2S)-2-(tert-Butoxy)-2-[(22S)-17-{[2-(4-fluorophenyl)ethyl]carbamoyl}-4,22,28-trimethyl-21,27-dioxa-1,5,7,8-tetraazahexacyclo[26.2.2.1^6,9.1^10,14.0^2,7.0^15,20]tetratriaconta-2,4,6(34),8,10(33),11,13,15(20),16,18-decaen-3-yl]acetic acid]", "pEC50": 8.40}
{"smiles": "Cc1ccc2cc1OC/C=C/COc1cc(F)ccc1-c1cccc(c1)-c1cc3nc(C)c([C@H](OC(C)(C)C)C(=O)O)c-2n3n1", "note": "[Example 9, (2S)-2-(tert-Butoxy)-2-[(17E)-23-fluoro-7,13-dimethyl-15,20-dioxa-3,4,6-triazahexacyclo [25.3.1.1^2,^5.1^10,^14.0^4,^9.0^21,^26]tritriaconta-1(31),2,5(33),6,8,10,12,14(32), 17,21(26),22,24,27,29-tetradecaen-8-yl]acetic acid]", "pEC50": 6.31}
{"smiles": "Cc1nc2cc3nn2c(c1[C@H](OC(C)(C)C)C(=O)O)N1CCC(C)(CC1)OCCOCCOc1cc(F)ccc1-c1cccc-3c1", "note": "[Example 24, (2S)-2-(tert-Butoxy)-2-{18-fluoro-4,28-dimethyl-21, 24, 27-trioxa-1,5,7,8-tetraazahexacyclo[26.2.2.1^6,9.1^10,14.0^2,7.0^15,20]tetratriaconta-2,4,6(34),8,10(33),11,13,15(20),16,18-decaen-3-yl}acetic acid]", "pEC50": 8.22}
{"smiles": "Cc1nc2cc3nn2c(c1[C@H](OC(C)(C)C)C(=O)O)-c1ccc(cc1)OC/C=C/COc1cc(F)ccc1-c1cccc-3c1", "note": "[Example 2, (2S)-2-(tert-butoxy)-2-[(23E)-18-fluoro-4-methyl-21,26-dioxa-5,7,8-triazahexacyclo [25.2.2.1^6,^9.1^10,^14.0^2,^7.0^15,^20]tritriaconta-1(29),2,4,6(33),8,10(32),11,13, 15(20),16,18,23,27,30-tetradecaen-3-yl]acetic acid]", "pEC50": 6.16}
{"smiles": "Cc1ccc2cc1OCc1cccc(c1)COc1cc(F)ccc1-c1cccc(c1)-c1cc3nc(C)c([C@H](OC(C)(C)C)C(=O)O)c-2n3n1", "note": "[Example 15, (2S)-2-(tert-Butoxy)-2-{26-fluoro-7,13-dimethyl-15,23-dioxa-3,4,6-triazaheptacyclo [28.3.1.1^2,^5.1^10,^14.1^17,^21.0^4,^9.0^24,^29]heptatriaconta-1(34),2,5(37),6,8,10,12,14(36), 17(35),18,20,24(29),25,27,30,32-hexadecaen-8-yl}acetic acid]", "pEC50": 6.52}
{"smiles": "Cc1nc2cc3nn2c(c1[C@H](OC(C)(C)C)C(=O)O)-c1ccc(c2ccccc12)OCc1cccc(c1)COc1cc(F)ccc1-c1cccc-3c1", "note": "[Example 6, (2S)-2-(tert-butoxy)-2-{18-fluoro-4-methyl-21,29-dioxa-5,7,8-triazaoctacyclo[28.6.2.1^6,9.1^10,14. 1^23,27.0^2,7.0^15,20.0^31,36]hentetraconta-1(37),2,4,6(41),8,10(40),11,13,15(20),16,18,23(39),24,26,30(38),31(36),32,34-octadecaen-3-yl}acetic acid]", "pEC50": 4.70}
{"smiles": "Cc1ccc2cc1OCCCCCCOc1cc(F)ccc1-c1cccc(c1)-c1cc3nc(C)c([C@H](OC(C)(C)C)C(=O)O)c-2n3n1", "note": "[Example 16, (2S)-2-(tert-Butoxy)-2-{25-fluoro-7,13-dimethyl-15,22-dioxa-3,4,6-triazahexacyclo [27.3.1.1^2,^5.1^10,^14.0^4,^9.0^23,^28]pentatriaconta-1(33),2,5(35),6,8,10,12,14(34), 23(28),24,26,29,31-tridecaen-8-yl}acetic acid]", "pEC50": 6.11}
{"smiles": "Cc1ccc2cc1OCCOCCOc1cc(F)ccc1-c1cccc(c1)-c1cc3nc(C)c([C@H](OC(C)(C)C)C(=O)O)c-2n3n1", "note": "[Example 17, (2S)-2-(tert-Butoxy)-2-{24-fluoro-7,13-dimethyl-15,18,21-trioxa-3,4,6-triazahexacyclo [26.3.1.1^2,^5.1^10,^14.0^4,^9.0^22,^27]tetratriaconta-1(32),2,5(34),6,8,10,12,14(33), 22(27),23,25,28,30-tridecaen-8-yl}acetic acid]", "pEC50": 6.54}
{"smiles": "Cc1nc2cc3nn2c(c1[C@H](OC(C)(C)C)C(=O)O)-c1ccc(cc1)OCCOCCOc1cc(F)ccc1-c1cccc-3c1", "note": "[Example 5, (2S)-2-(tert-butoxy)-2-{18-fluoro-4-methyl-21,24,27-trioxa-5,7,8-triazahexacyclo [26.2.2.1^6,^9.1^10,^14.0^2,^7.0^15,^20]tetratriaconta-1(30),2,4,6(34),8,10(33),11,13, 15(20),16,18,28,31-tridecaen-3-yl}acetic acid]", "pEC50": 6.51}
{"smiles": "Cc1nc2cc3nn2c(c1[C@H](OC(C)(C)C)C(=O)O)-c1ccc(cc1)OCc1cccc(c1)COc1cc(F)ccc1-c1cccc-3c1", "note": "[Example 3, (2S)-2-(tert-butoxy)-2-{18-fluoro-4-methyl-21,29-dioxa-5,7,8-triazaheptacyclo [28.2.2.1^6,^9.1^10,^14.1^23,^27.0^2,^7.0^15,^20]heptatriaconta-1(32),2,4,6(37),8,10(36),11,13, 15(20),16,18,23(35),24,26,30,33-hexadecaen-3-yl}acetic acid]", "pEC50": 7.26}
{"smiles": "Cc1nc2cc3nn2c(c1[C@H](OC(C)(C)C)C(=O)O)-c1ccc(c2ccccc12)OCC#CCOc1cc(F)ccc1-c1cccc-3c1", "note": "[Example 7, (2S)-2-(tert-butoxy)-2-{18-fluoro-4-methyl-21,26-dioxa-5,7,8-triazaheptacyclo[25.6.2.1^6,9.1^10,14.0^2,7.0^15,20.0^28,33]heptatriaconta-1(34),2,4,6(37),8,10(36),11,13,15(20),16,18,27(35),28 (33),29,31-pentadecaen-23-yn-3-yl}acetic acid]", "pEC50": 4.92}
{"smiles": "C=C1COc2cc(F)ccc2-c2cccc(c2)-c2cc3nc(C)c([C@H](OC(C)(C)C)C(=O)O)c(n3n2)-c2ccc(F)cc2OC1", "note": "[Example 19, (2S)-2-(tert-butoxy)-2-{13,23-difluoro-7-methyl-18-methylidene-16,20-dioxa-3,4,6-triazahexacyclo[25.3.1.1^2,5.0^4,9.0^10,15.0^21,26]dotriaconta-1(31),2,5(32),6,8,10,12,14,21(26),22,24,27,29-tridecaen-8-yl}acetic acid]", "pEC50": 5.45}
{"smiles": "Cc1ccc2cc1OCCC(F)(F)C(F)(F)CCOc1cc(F)ccc1-c1cccc(c1)-c1cc3nc(C)c([C@H](OC(C)(C)C)C(=O)O)c-2n3n1", "note": "[Example 12, (2S)-2-(tert-Butoxy)-2-{18,18,19,19,25-pentafluoro-7,13-dimethyl-15,22-dioxa-3,4,6-triazahexacyclo [27.3.1.1^2,^5.1^10,^14.0^4,^9.0^23,^28]pentatriaconta-1(33),2,5(35),6,8,10,12,14(34), 23(28),24,26,29,31-tridecaen-8-yl}acetic acid]", "pEC50": 5.78}
